Key:
[1] = system: P 388/VCR; assay: In vivo increase in antitumour activity of vincristine, resistant line P 388/VCR; set-up: species or system murine leukaemia in female B6D2F1 mice
Description: This study was completed by an in vivo study, using a murine leukaemia resistant to vincristine (P 388/VCR) and using the compounds of the present invention in association with vincristine.
(§1) The sensitive parent line P 388 (murine leukaemia) and the sub-line resistant to vincristine, P 388/VCR, were supplied by NCI (Frederick, USA). The tumour cells (10^6 cells) were inoculated on day 0 into the indraperitoneal cavity of female B6D2F1 mice (Iffa Credo, France) weighing from 18 to 20 g (groups of 8 to 10 animals).
Every day for 4 days, starting from day 1, the animals received:
an administration of 25 to 150 mg/kg by i.p., p.o. or i.v. route of the compound of the present invention to be tested, as mentioned in the table 4a; then
(§2) 30 to 60 minutes later, an administration by the i.p. route of 0.25 mg/kg of vincristine (used as a reference antitumour agent).
(§3) The antitumour activity is expressed as follows: [formula]
(§4) The values are mean values obtained in independent experiments (# sem when n is greater than or equal to 3).

[2] = system: DC-3F/AD; assay: Cytotoxicity: reversal of resistance to actinomycin D (reversion factor), line DC-3F/AD; assay type: cell-based, Chinese hamster
Experimental: (§5) The parameter measured is the cytotoxicity of the antitumour drug, quantified in the absence and in the presence of the reversing compound. Two resistant cell lines were used: 1 Chinese hamster lung line, DC-3F/AD, the resistance of which was induced by actinomycin D. […] The compounds tested for their capacity to reverse the resistance are added at the same time as the cytotoxic agent. The cells are then incubated for 4 days.

[3] = target: T1, calcium channel (Sus scrofa, UniProt A0A8W4FNC0); assay: Affinity for the calcium channel labelled with [^3 ] PN 200110, aorta smooth muscle microsome preparations; assay type: binding; settings: pig aorta smooth muscle microsomes; means of three independent experiments
T1 construct: pig aorta smooth muscle microsome preparations; from tissue; host or cells: pig aorta smooth muscle microsomes
T1 sequence (A0A8W4FNC0 1-2067): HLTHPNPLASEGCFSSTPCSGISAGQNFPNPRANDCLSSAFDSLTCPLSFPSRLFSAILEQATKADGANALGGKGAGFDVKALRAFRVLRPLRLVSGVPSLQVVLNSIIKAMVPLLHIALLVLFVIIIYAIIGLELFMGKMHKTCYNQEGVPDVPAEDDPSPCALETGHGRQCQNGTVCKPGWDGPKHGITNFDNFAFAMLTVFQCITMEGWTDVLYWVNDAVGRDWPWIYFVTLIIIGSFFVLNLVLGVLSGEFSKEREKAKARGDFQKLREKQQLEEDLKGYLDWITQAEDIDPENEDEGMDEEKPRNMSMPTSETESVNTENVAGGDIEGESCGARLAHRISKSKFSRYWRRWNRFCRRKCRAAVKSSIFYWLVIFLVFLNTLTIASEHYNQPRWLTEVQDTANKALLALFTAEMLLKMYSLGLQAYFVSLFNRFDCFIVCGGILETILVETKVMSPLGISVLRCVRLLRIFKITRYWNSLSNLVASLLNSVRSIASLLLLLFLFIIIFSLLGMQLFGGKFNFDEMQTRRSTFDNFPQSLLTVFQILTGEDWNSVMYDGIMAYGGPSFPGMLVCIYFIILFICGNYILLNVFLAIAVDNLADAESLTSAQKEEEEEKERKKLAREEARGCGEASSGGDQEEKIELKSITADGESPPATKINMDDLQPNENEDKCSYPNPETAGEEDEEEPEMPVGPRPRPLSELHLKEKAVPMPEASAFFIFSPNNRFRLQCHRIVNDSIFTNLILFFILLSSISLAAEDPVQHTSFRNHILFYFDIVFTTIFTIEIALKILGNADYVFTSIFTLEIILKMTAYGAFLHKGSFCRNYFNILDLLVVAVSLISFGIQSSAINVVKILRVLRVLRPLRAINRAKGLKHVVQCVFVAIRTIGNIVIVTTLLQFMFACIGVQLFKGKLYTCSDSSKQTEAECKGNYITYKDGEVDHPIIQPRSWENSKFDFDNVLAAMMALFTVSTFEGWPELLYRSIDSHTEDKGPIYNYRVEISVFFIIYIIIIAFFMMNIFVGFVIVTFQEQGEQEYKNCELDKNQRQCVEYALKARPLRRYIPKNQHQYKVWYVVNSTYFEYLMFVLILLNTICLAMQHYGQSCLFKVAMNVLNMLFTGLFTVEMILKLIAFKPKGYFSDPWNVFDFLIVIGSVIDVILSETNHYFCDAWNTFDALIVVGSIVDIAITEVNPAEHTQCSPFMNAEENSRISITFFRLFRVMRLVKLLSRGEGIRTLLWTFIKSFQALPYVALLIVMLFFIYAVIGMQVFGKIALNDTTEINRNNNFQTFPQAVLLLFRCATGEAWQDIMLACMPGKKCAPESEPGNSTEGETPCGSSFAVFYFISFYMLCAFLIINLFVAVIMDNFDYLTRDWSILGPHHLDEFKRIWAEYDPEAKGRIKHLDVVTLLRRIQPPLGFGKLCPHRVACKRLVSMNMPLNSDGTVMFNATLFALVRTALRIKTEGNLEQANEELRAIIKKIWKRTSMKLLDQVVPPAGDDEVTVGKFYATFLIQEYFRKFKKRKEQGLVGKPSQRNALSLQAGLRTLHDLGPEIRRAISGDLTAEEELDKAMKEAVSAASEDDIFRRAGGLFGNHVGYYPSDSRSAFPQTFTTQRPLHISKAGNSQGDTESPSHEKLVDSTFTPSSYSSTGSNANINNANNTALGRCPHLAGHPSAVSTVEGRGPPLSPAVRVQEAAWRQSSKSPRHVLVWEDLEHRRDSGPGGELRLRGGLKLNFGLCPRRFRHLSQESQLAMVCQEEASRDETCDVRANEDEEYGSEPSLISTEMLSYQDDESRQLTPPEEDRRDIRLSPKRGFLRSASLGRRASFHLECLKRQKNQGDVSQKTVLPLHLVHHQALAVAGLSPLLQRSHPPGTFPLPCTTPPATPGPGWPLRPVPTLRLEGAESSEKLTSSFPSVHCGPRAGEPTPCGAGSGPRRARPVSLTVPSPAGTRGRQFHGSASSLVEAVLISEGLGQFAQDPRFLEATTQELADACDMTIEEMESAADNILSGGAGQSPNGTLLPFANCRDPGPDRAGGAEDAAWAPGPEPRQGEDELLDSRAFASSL
Description: The results are expressed as IC50 (M) and represent means of three independent experiments.

[4] = system: KB-A1; assay: Flow cytometry: intracellular accumulation of ADR, line KB-A1; assay type: cell-based, Human; settings: ADR 50 μM, 5 hours
Experimental: Also measured was the effect of the compounds on the intracellular concentration of adriamycin. […] By measuring that fluorescence, it is thus possible to obtain a relative measurement of the intracellular concentration of ADR. […] The cells (5×10^5 per ml) were exposed simultaneously to ADR at a fixed concentration (50 μM) and to the tested compounds at various concentrations. After 5 hours' incubation, the intracellular accumulation of ADR was evaluated by FCM. […] The results were presented in the form of linear histograms of the intracellular ADR fluorescence. Expression of the results: for each of the histograms the mean fluorescence per channel (MEAN) was determined by the computer of the apparatus. For all experiments: a negative control (cells without ADR) fixed the autofluorescence threshold. a positive control (cells with ADR) determined the MEAN value=MN1. the "test" tubes (cells with ADR and with compound) were used to determine, for each of the compounds and at each of the concentrations, the MEAN values=MN2. The results are expressed in the form of variations from the mean fluorescence obtained for each of the "test" tubes (MN2) in relation to the mean fluorescence obtained with the positive control (MN1): VAR-MEAN=MN2-MN1. The measured parameter is thus the increase in ADR fluorescence in the presence of the tested compounds.

[5] = system: KB-A1; assay: Cytotoxicity: reversal of resistance to adriamycin (reversion factor), line KB-A1; assay type: cell-based, Human
Experimental: as §5, with “compound.” for “compound. Two resistant cell lines were used: 1 Chinese hamster lung line, DC-3F/AD, the resistance of which was induced by actinomycin D.”

[6] = system: P 388; assay: In vivo increase in antitumour activity of vincristine, sensitive line P388; set-up: species or system murine leukaemia in female B6D2F1 mice; settings: compound 150 mg/kg p.o.
Experimental: as §1
Every day for 4 days, starting from day 1, the animals received: […]
as §2, §3, §4
Using the sensitive line (P388) the tested compounds of the invention increase considerably the sensitivity of the cells to vincristine.

[7] = system: Plasmodium falciparum; settings: literature (Krogstad; Martin; Deloron); cited from earlier work
[8] = with VCR […] i.p., compound 50 mg/kg i.p.
[9] = with VCR […] i.p., compound 150 mg/kg p.o.

Compound	T/C ([1]; VCR 0, compound 50 mg/kg i.p.) [%]	T/C ([1]; VCR 0, compound 150 mg/kg p.o.) [%]	T/C [1, 8] [%]	T/C [1, 9] [%]	reversion factor (RF) ([2]; compound 1 μM)	reversion factor (RF) ([2]; compound 5 μM)	IC50 [3] [nM]	increase in the ADR fluorescence (VAR-MEAN) ([4]; compound 1 μM)	increase in the ADR fluorescence (VAR-MEAN) ([4]; compound 5 μM)	increase in the ADR fluorescence (VAR-MEAN) ([4]; compound […])	reversion factor (RF) ([5]; compound 1 μM)	reversion factor (RF) ([5]; compound 5 μM)	T/C ([6]; VCR 0) [%]	Survivors on day 60 ([6]; with VCR […] i.p.)	T/C ([6]; with VCR […] i.p.) [%]	Survivors on day 60 ([6]; VCR 0)	sensitivity of a chloroquine-resistant line to chloroquine [7]
CCOC(=O)C1=C(COCCOCCNCc2ccsc2)NC(C)=C(C(=O)OC)C1c1cccc(Cl)c1Cl (stereo not drawn) [Example 14, d-2-{[2-(2-(N-thien-3-ylmethylamino)ethoxy)ethoxy]methyl}-4-(2,3-dichlorophenyl)-3-ethoxycarbonyl-5-methoxycarbonyl-6-methyl-1,4-dihydropyridine]	99	103	164	200	8.2	4,463.2	1000	2.4	20.5	8.2	22.7	169.4	95	4/8	> 587	–	–
CCOC(=O)C1=C(COCCOCCNCc2ccc([N+](=O)[O-])cc2)NC(C)=C(C(=O)OC)C1c1cccc(Cl)c1Cl (stereo not drawn) [Example 1, d-2-{[2-(2-(N-p-nitrobenzylamino)ethoxy)ethoxy]methyl}-4-(2,3-dichlorophenyl)-3-ethoxycarbonyl-5-methoxycarbonyl-6-methyl-1,4-dihydropyridine]	107	99	171	185	21.0	2,613.2	1600	5.5	45.7	26.1	32.1	640.5	99	4/8	> 532	0/8	–
CCOC(=O)C1=C(COCCOCCNCc2nccc3ccccc23)NC(C)=C(C(=O)OC)C1c1cccc(Cl)c1Cl (stereo not drawn) [Example 19, d-2-{[2-(2-(N-isoquinol-1-ylmethylamino)ethoxy)ethoxy]methyl}-4-(2,3-dichlorophenyl)-3-ethoxycarbonyl-5-methoxycarbonyl-6-methyl-1,4-dihydropyridine]	–	–	–	–	1.5	1,701.7	3200	9.4	34.7	15.7	3.6	140.5	–	–	–	–	–
COc1ccc(CCN(C)CCCC(C#N)(c2ccc(OC)c(OC)c2)C(C)C)cc1OC (stereo not shown) [verapamil, reference compound]	–	–	–	–	1.0	3.1	–	3.7	12.2	8.6	4.6	26.0	–	–	–	–	restores the sensitivity of a line resistant to chloroquine
CCOC(=O)C1=C(COCCN)NC(C)=C(C(=O)OC)C1c1ccccc1Cl (stereo not shown) [AMLODIPINE, amlodipine, reference compound]	–	–	–	–	1.0	2.6	–	0.0	4.7	2.1	1.5	5.9	–	–	–	–	restores the sensitivity of a line resistant to chloroquine
